Experimental data published in PubChem BioAssay AID608 (Sanford-Burnham Center for Chemical Genomics, 2007).
The source made the active and inactive calls. The rule behind the calls is not given here.

target: Peptidyl-prolyl cis-trans isomerase FKBP1A (Homo sapiens) (UniProt P62942); assay: FKBP12 binders, biophysical, NMR detection (AID 608); conditions: NMR binding, purified FKBP12
Sequence (P62942 whole entry, looked up): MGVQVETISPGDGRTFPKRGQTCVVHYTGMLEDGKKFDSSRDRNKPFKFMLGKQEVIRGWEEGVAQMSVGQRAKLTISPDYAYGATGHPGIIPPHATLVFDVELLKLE

Structure (SMILES)	Kd
CC12CCC(O)CC1CCC1C2[C@H](O)CC2(C)C(C3=CC(=O)OC3)CCC12O (stereo partly drawn)	> 4 mM (inactive)
O=C1CSC(=Nc2cccc(C(F)(F)F)c2)N1	> 4 mM (inactive)
Cc1n[nH]c(C)c1NC(=O)c1cccc(F)c1	> 4 mM (inactive)
N#Cc1cc2ccccc2nc1N	> 4 mM (inactive)
COC(=O)c1oc2ccc(Cl)cc2c1NC(C)=O	> 4 mM (inactive)
c1ccc(NCc2nc(-c3ccccc3)no2)cc1	> 4 mM (inactive)
NC(=O)CSc1nnc(-c2cccnc2)o1	> 4 mM (inactive)
NCc1ccc2occc2c1	> 4 mM (inactive)
S=C(c1cccnc1)N1CCOCC1	> 4 mM (inactive)
O=C1CSC(=Nc2cccc(C(=O)O)c2)N1	> 4 mM (inactive)
NC(C(=O)O)C(O)C(=O)O (stereo not drawn)	> 4 mM (inactive)
Cc1cc(C)c2ccc[n+]([O-])c2c1O	> 4 mM (inactive)
O=c1cnnc(N2CCCCC2)[nH]1	> 4 mM (inactive)
COC(=O)CCSCC(=O)Nc1nnc(C)s1	> 4 mM (inactive)
c1cc2c(cc1[C@H]1OC[C@H]3[C@@H]1CO[C@H]3c1ccc3c(c1)OCO3)OCO2	> 4 mM (inactive)
CC(=O)c1ccc(-n2ccnc2)cc1	> 4 mM (inactive)
O=c1c(O)c(-c2ccccc2)oc2ccccc12	> 4 mM (inactive)
O=S(=O)(c1cccc(Cl)c1)N1CCCC1	> 4 mM (inactive)
Cn1cccc1C(=O)NS(=O)(=O)c1ccccc1Cl	> 4 mM (inactive)
COC(=O)CC1=Nc2ccccc2NC(=O)C1	> 4 mM (inactive)

Structure (SMILES)	Kd
O=C(C1COc2ccccc2O1)N1CCOCC1 (stereo not drawn)	inactive
NC(=O)Cn1nnc(-c2ccc(C(F)(F)F)cc2)n1	> 4 mM (inactive)
O=C(CCc1n[nH]c(=O)[nH]c1=O)NCc1ccccc1	> 4 mM (inactive)
CC(C)(C)P(=O)(O)c1ccccc1	> 4 mM (inactive)
O=C1CN(c2ccccc2)CC(=O)N1	> 4 mM (inactive)
Cn1cnc2c1c(=O)[nH]c(=O)n2C	> 4 mM (inactive)
S=C(NC1CC1)NN1CCOCC1	> 4 mM (inactive)
Cc1nnc(NCCN2CCOCC2)[nH]c1=O	> 4 mM (inactive)
Cn1c(CSc2nc3ccccc3s2)n[nH]c1=S	> 4 mM (inactive)
Cc1nc2ccc(NC(=O)N3CCOCC3)cc2s1	> 4 mM (inactive)
CNc1ccccc1C(=O)O	> 4 mM (inactive)
O=c1[nH]cnc2nc[nH]c12	> 4 mM (inactive)
O=C1C(=O)N(CNc2ncccn2)c2ccccc21	> 4 mM (inactive)
Cc1cc(=O)[nH]c(NCC(=O)O)n1	> 4 mM (inactive)
COC(=O)c1c(OC)cc2c(c1C)Oc1c(Cl)c(OC(C)=O)c(Cl)c(C)c1C(=O)O2	> 4 mM (inactive)
Cn1c([O-])c([N+](C)(C)C)c(=O)n(C)c1=O	> 4 mM (inactive)
Cc1ccc(-c2c(C)n([O-])c(C)c(C)[n+]2=O)cc1	> 4 mM (inactive)
Cc1cccc(NC(=O)CN2C(=O)CNC2=O)c1	> 4 mM (inactive)
CC1=C2C(=CO[C@H](C)[C@H]2C)C(=O)C(C(=O)O)=C1O	> 4 mM (inactive)
C=C[C@@](C)(O)CCC1C(=C)C[C@H](OC(C)=O)C2C(C)(C)CCCC12C (stereo partly drawn)	> 4 mM (inactive)

Structure (SMILES)	Kd
COC(=O)c1ccc(/C=C2/NC(=S)NC2=O)cc1	> 4 mM (inactive)
Cc1ccccc1NC(=S)NCCO	> 4 mM (inactive)
Cc1cc(-c2ccc(Cl)cc2)n2nc(N)nc2n1	> 4 mM (inactive)
N#CCN1C(=O)c2ccccc2S1(=O)=O	> 4 mM (inactive)
COc1ccc(Cl)cc1NS(=O)(=O)N1CCOCC1	inactive
COc1cc(-c2coc3cc(OCc4ccccc4)c(OC)c(O)c3c2=O)cc(O)c1OC	> 4 mM (inactive)
O=C(Nc1ccc2ccccc2c1)c1cnccn1	> 4 mM (inactive)
COc1ccccc1-c1noc(-c2ccncc2)n1	> 4 mM (inactive)
CSc1ccccc1NC(=O)c1c(C)noc1C	> 4 mM (inactive)
O=[N+]([O-])c1cccc(CN2CCC(O)CC2)c1	> 4 mM (inactive)
O=C(O)C1CSC(c2ccco2)N1 (stereo not drawn)	> 4 mM (inactive)
O=C(CSc1ccc(C(F)(F)F)cc1[N+](=O)[O-])N1CCOCC1	0.448 mM
NCC1CN(Cc2ccccc2)CCO1 (stereo not drawn)	> 4 mM (inactive)
CSc1ccccc1NC(=O)c1ccoc1C	> 4 mM (inactive)
COc1ccc2cc3[n+](cc2c1OC)CCc1cc2c(cc1-3)OCO2	> 4 mM (inactive)
COC(=O)[C@@H]1OC(=O)C2OC23[C@@]1(C)CCC1[C@]2(C)C(C[C@H](O)[C@]13C)C(C)(C)[C@H](OC(C)=O)C[C@@H]2OC(C)=O (stereo partly drawn)	> 4 mM (inactive)
COC(=O)C1CCc2ccccc2N1 (stereo not drawn)	> 4 mM (inactive)
O=C1CCN(c2ccccc2)N1	> 4 mM (inactive)
